Tested on: 429239-143-T-J1-PDC complex spheroid viability
Assay: Anticancer human tumor 429239-143-T-J1-PDC patient-derived small cell lung carcinoma cell line growth inhibition [POLQ]
Details: for IC50: curve of first compound; for viability, T/C: stronger effect = lower value
Summary of the method: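 Complex spheroid viability model combining PDC tumour cells with endothelial (HUVEC) and MSC stromal cells. Novobiocin, ART-558 or RP6685 were tested singly and in combination with standard and investigational anticancer drugs. Each was titrated in half-log steps from near clinical Cmax, or from 10 microM where Cmax was unknown.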
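Note: luminescence signal used as surrogate measure of viable cells; spheroids exposed to compounds for seven days before readout.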
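Throughout, for viability, T/C: 100% = DMSO vehicle control viability as luminescence relative to vehicle.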

## C=CC(=O)N1CCN(c2nc(=O)n(-c3c(C)ccnc3C(C)C)c3nc(-c4c(O)cccc4F)c(F)cc23)C(C)C1 (centres undefined) + Nc1ccc(C#CCN(C(=O)Cc2ncc(C(F)(F)F)cc2C(F)(F)F)c2ccc(F)cc2)nn1
Second compound 0.0316 µM
  IC50: > 10 µM
Second compound 0.1 µM
  IC50: > 10 µM
Second compound 0.316 µM
  IC50: > 10 µM
Second compound 1 µM
  IC50: > 10 µM
Second compound 3.16 µM
  IC50: > 10 µM
Second compound 10 µM
  IC50: > 10 µM
Second compound 0.0316 µM, first compound 0.0316 µM
  viability, T/C: 101%
Second compound 0.0316 µM, first compound 0.1 µM
  viability, T/C: 97.2%
Second compound 0.0316 µM, first compound 0.316 µM
  viability, T/C: 97.2%
Second compound 0.0316 µM, first compound 1 µM
  viability, T/C: 114%
Second compound 0.0316 µM, first compound 3.16 µM
  viability, T/C: 108%
Second compound 0.0316 µM, first compound 10 µM
  viability, T/C: 93.8%
Second compound 0.1 µM, first compound 0.0316 µM
  viability, T/C: 97.7%
Second compound 0.1 µM, first compound 0.1 µM
  viability, T/C: 113%
Second compound 0.1 µM, first compound 0.316 µM
  viability, T/C: 108%
Second compound 0.1 µM, first compound 1 µM
  viability, T/C: 114%
Second compound 0.1 µM, first compound 3.16 µM
  viability, T/C: 102%
Second compound 0.1 µM, first compound 10 µM
  viability, T/C: 96.8%
Second compound 0.316 µM, first compound 0.0316 µM
  viability, T/C: 108%
Second compound 0.316 µM, first compound 0.1 µM
  viability, T/C: 97.6%
Second compound 0.316 µM, first compound 0.316 µM
  viability, T/C: 99.6%
Second compound 0.316 µM, first compound 1 µM
  viability, T/C: 103%
Second compound 0.316 µM, first compound 3.16 µM
  viability, T/C: 109%
Second compound 0.316 µM, first compound 10 µM
  viability, T/C: 94.1%
Second compound 1 µM, first compound 0.0316 µM
  viability, T/C: 98.9%
Second compound 1 µM, first compound 0.1 µM
  viability, T/C: 103%
Second compound 1 µM, first compound 0.316 µM
  viability, T/C: 99.3%
Second compound 1 µM, first compound 1 µM
  viability, T/C: 112%
Second compound 1 µM, first compound 3.16 µM
  viability, T/C: 98.4%
Second compound 1 µM, first compound 10 µM
  viability, T/C: 91.8%
Second compound 3.16 µM, first compound 0.0316 µM
  viability, T/C: 107%
Second compound 3.16 µM, first compound 0.1 µM
  viability, T/C: 105%
Second compound 3.16 µM, first compound 0.316 µM
  viability, T/C: 109%
Second compound 3.16 µM, first compound 1 µM
  viability, T/C: 115%
Second compound 3.16 µM, first compound 3.16 µM
  viability, T/C: 104%
Second compound 3.16 µM, first compound 10 µM
  viability, T/C: 97.3%
Second compound 10 µM, first compound 0.0316 µM
  viability, T/C: 104%
Second compound 10 µM, first compound 0.1 µM
  viability, T/C: 98.8%
Second compound 10 µM, first compound 0.316 µM
  viability, T/C: 111%
Second compound 10 µM, first compound 1 µM
  viability, T/C: 108%
Second compound 10 µM, first compound 3.16 µM
  viability, T/C: 95.7%
Second compound 10 µM, first compound 10 µM
  viability, T/C: 96.8%

## CC(=O)O[C@H]1C(=O)[C@@]2(C)[C@H]([C@H](OC(=O)c3ccccc3)[C@]3(O)C[C@H](OC(=O)[C@H](O)[C@@H](NC(=O)c4ccccc4)c4ccccc4)C(C)=C1C3(C)C)[C@]1(OC(C)=O)CO[C@@H]1C[C@@H]2O + COC1C(OC(N)=O)C(O)C(Oc2ccc3c(O)c(NC(=O)c4ccc(O)c(CC=C(C)C)c4)c(=O)oc3c2C)OC1(C)C
Second compound 0.0316 µM
  IC50: < 0.00949 µM
Second compound 0.1 µM
  IC50: < 0.00949 µM
Second compound 0.316 µM
  IC50: < 0.00949 µM
Second compound 1 µM
  IC50: < 0.00949 µM
Second compound 3.16 µM
  IC50: < 0.00949 µM
Second compound 10 µM
  IC50: < 0.00949 µM
Second compound 0.0316 µM, first compound 0.00949 µM
  viability, T/C: 12.5%
Second compound 0.0316 µM, first compound 0.03 µM
  viability, T/C: 12.8%
Second compound 0.0316 µM, first compound 0.0949 µM
  viability, T/C: 10.9%
Second compound 0.0316 µM, first compound 0.3 µM
  viability, T/C: 13.6%
Second compound 0.0316 µM, first compound 0.949 µM
  viability, T/C: 11.8%
Second compound 0.0316 µM, first compound 3 µM
  viability, T/C: 13.3%
Second compound 0.1 µM, first compound 0.00949 µM
  viability, T/C: 14.8%
Second compound 0.1 µM, first compound 0.03 µM
  viability, T/C: 13.2%
Second compound 0.1 µM, first compound 0.0949 µM
  viability, T/C: 13.4%
Second compound 0.1 µM, first compound 0.3 µM
  viability, T/C: 11.5%
Second compound 0.1 µM, first compound 0.949 µM
  viability, T/C: 12.4%
Second compound 0.1 µM, first compound 3 µM
  viability, T/C: 14.3%
Second compound 0.316 µM, first compound 0.00949 µM
  viability, T/C: 13.8%
Second compound 0.316 µM, first compound 0.03 µM
  viability, T/C: 11.2%
Second compound 0.316 µM, first compound 0.0949 µM
  viability, T/C: 11.2%
Second compound 0.316 µM, first compound 0.3 µM
  viability, T/C: 11.3%
Second compound 0.316 µM, first compound 0.949 µM
  viability, T/C: 12.4%
Second compound 0.316 µM, first compound 3 µM
  viability, T/C: 12.2%
Second compound 1 µM, first compound 0.00949 µM
  viability, T/C: 12.5%
Second compound 1 µM, first compound 0.03 µM
  viability, T/C: 12.4%
Second compound 1 µM, first compound 0.0949 µM
  viability, T/C: 12.6%
Second compound 1 µM, first compound 0.3 µM
  viability, T/C: 11.6%
Second compound 1 µM, first compound 0.949 µM
  viability, T/C: 14.2%
Second compound 1 µM, first compound 3 µM
  viability, T/C: 13.9%
Second compound 3.16 µM, first compound 0.00949 µM
  viability, T/C: 15.9%
Second compound 3.16 µM, first compound 0.03 µM
  viability, T/C: 12.6%
Second compound 3.16 µM, first compound 0.0949 µM
  viability, T/C: 12%
Second compound 3.16 µM, first compound 0.3 µM
  viability, T/C: 11.3%
Second compound 3.16 µM, first compound 0.949 µM
  viability, T/C: 15.8%
Second compound 3.16 µM, first compound 3 µM
  viability, T/C: 13.8%
Second compound 10 µM, first compound 0.00949 µM
  viability, T/C: 14.8%
Second compound 10 µM, first compound 0.03 µM
  viability, T/C: 12.8%
Second compound 10 µM, first compound 0.0949 µM
  viability, T/C: 12.1%
Second compound 10 µM, first compound 0.3 µM
  viability, T/C: 12.8%
Second compound 10 µM, first compound 0.949 µM
  viability, T/C: 12.6%
Second compound 10 µM, first compound 3 µM
  viability, T/C: 13.3%
